tested on: TBK1 + IKKε; assay: TBK1 + IKKε cell assay: dose response inhibition of phospho-IRF3 @ Ser 386 in MDA-MB-468 cells after poly(I:C) stimulation; format: cell-based; settings: Homo sapiens, MDA-MB-468, MDA-MB-468 cells, nuclear phospho-IRF3 Ser386, read-out: TBK1 + IKKε cell assay IC50
Text: Dose response inhibition of phospho-IRF3 @ Ser 386 cell/MDAMB468/INH/PHOS/IMAG/pIRF3
Although TBK1 and IKKε are mainly known as key substances in the innate immune response, recent findings have indicated a role for TBK1 and IKKε in Ras-induced oncogenic transformation. TBK1 was identified as RaIB effector in the Ras-like (RaI)-guanine nucleotide exchange factor (GEF) pathway that is required for Ras-induced transformation. TBK1 directly activates IRF3 which, on phosphorylation, homodimerises and translocates to the nucleus, where it activates processes associated with inflammation, immune regulation, cell survival and proliferation.
This assay has been developed in order to assess the efficacy/potency of TBK1/IKKε inhibitor compounds based on the immunocytochemical detection of nucleus-localised phospho-IRF3, a target directly downstream of TBK1. Treatment with polyinosine-polycytidylic acid (poly(I:C), a synthetic analogue of double-stranded RNA (dsRNA), a molecular pattern associated with viral infection and recognised by Toll-like receptor 3 (TLR3) is used to induce TBK1/IKKε activity and IRF3 phosphorylation at Ser386.
Day 1: MDA-MB-468 cells are detached using HyQ-Tase, counted and sown into a 384-well plate with TC surface and clear bottom in a density of 10,000 cells per well in a total volume of 35 μl of complete medium. Alternatively, the cells are sown directly from frozen glass vials.
Day 2: The cells are pre-treated with inhibitor compounds for 1 h prior to poly(I:C) stimulation. After incubation for 2 h with poly(I:C), the cells are fixed in (para)formaldehyde (PFA) and permeabilised using methanol (MeOH). The cells are then blocked and incubated with an anti-pIRF3 antibody at 4° C. overnight.
Day 3: The primary antibody is washed off, an AlexaFluor488-conjugated secondary antibody is added, the cells are contrast-stained with propidium iodide, followed by image acquisition on an IMX ultra-high content reader.
Plating medium=culture medium: • RPMI 1640, Invitrogen #31870 • 10% of FCS, Invitrogen #10270-106 • 2 mM Glutamax, Invitrogen #35050-038 • 1 mM sodium pyruvate, Invitrogen #11360 • 1% of Pen/Strep • 37° C., 5% of CO2
Plates: 384-well bottom cell culture plates with black/clear bottom, Falcon #35 3962 or Greiner #781090
Subcultivation: HyQ-Tase, Thermo Scientific (HyClone) # SV30030.01
Poly(I:C) (LMW), Invitrogen # tlrl-picw (prepare 20 mg/ml stock solution in sterile PBS, denature 30 min 55° C. in a water bath, slowly cool to RT, store at −20° C. in aliquots)
a 10-point dose-response curve with MSC2119074A-4=BX-795 is included in each experiment
Formaldehyde (methanol-free, 16%, ultrapure EM grade), Polysciences #18814 (storage RT), final conc.: 4%
Goat serum, PAA # B15-035 (storage 4° C., long term −20° C.), final conc.: 10%
BSA (IgG- and protease-free, 30%), US-Biological # A1317 (storage 4° C., long term −20° C.), final conc.: 2%
Tween 20 detergent, Calbiochem #655204 (storage RT), (prepare 10% stock solution in water; final conc.: 0.1%)
Anti-pIRF-3 rabbit mAb, Epitomics #2526-B (storage −20° C.), final conc.: 1:2000 in PBS/2% of BSA
Alexa Fluor goat-anti-rabbit-488, Invitrogen # A11034 or # A11008 (storage 4° C., dark), final conc.: 1:2000 in PBS/2% of BSA/0.1% of Tween
Propidium iodide (PI), Fluka #81845, 1 mg/ml in H2O (storage 4° C., dark), final conc.: 0.2 μg/ml
(1) Sow 10,000 cells/well/35μof complete RPMI +10% FCS into 384-well bottom cell culture plates with black / clear bottom,
(2) Incubate for 2 h at room temperature on the bench, followed by further incubation for 22 h at 37° C., 5% of CO2 and 90% RH. […]

| SMILES | IC50 |
| --- | --- |
| N#Cc1cc(-c2c[nH]c3ncccc23)ccc1OC1CCOCC1 [Compound A1, 5-(1H-pyrrolo[2,3-b]pyridin-3-yl)-2-tetrahydropyran-4-yloxybenzonitrile] | 3000 to 50000 nM |
| Cn1cc(-c2cnc3[nH]cc(-c4ccc(OC5CCOCC5)c(C#N)c4)c3c2)cn1 [Compound A4, 5-[5-(1-methylpyrazol-4-yl)-1H-pyrrolo[2,3-b]pyridin-3-yl]-2-tetrahydropyran-4-yloxybenzonitrile] | 300 to 3000 nM |
| N#Cc1cc(-c2c[nH]c3ncc(-c4cnn(CCN5CCOCC5)c4)cc23)ccc1OC1CCOCC1 [Compound A7, 5-[5-[1-(2-morpholinoethyl)pyrazol-4-yl]-1H-pyrrolo[2,3-b]pyridin-3-yl]-2-tetrahydropyran-4-yloxybenzonitrile] | 300 to 3000 nM |
| N#Cc1cc(-c2c[nH]c3ncc(-c4ccc(N5CCOCC5)cc4)cc23)ccc1OC1CCOCC1 [Compound A8, 5-[5-(4-morpholinophenyl)-1H-pyrrolo[2,3-b]pyridin-3-yl]-2-tetrahydropyran-4-yloxybenzonitrile] | 3000 to 50000 nM |
| N#Cc1cc(-c2c[nH]c3ncc(-c4cnn(CCN5CCCC5)c4)cc23)ccc1OC1CCOCC1 [Compound A9, 5-[5-[1-(2-pyrrolidin-1-ylethyl)pyrazol-4-yl]-1H-pyrrolo[2,3-b]pyridin-3-yl]-2-tetrahydropyran-4-yloxybenzonitrile] | 300 to 3000 nM |
| COCCn1cc(-c2cnc3[nH]cc(-c4ccc(OC5CCOCC5)c(C#N)c4)c3c2)cn1 [Compound A10, 5-[5-[1-(2-methoxyethyl)pyrazol-4-yl]-1H-pyrrolo[2,3-b]pyridin-3-yl]-2-tetrahydropyran-4-yloxybenzonitrile] | < 300 nM |
| N#Cc1cc(-c2c[nH]c3ncc(-c4cnn(C5CCNCC5)c4)cc23)ccc1OC1CCOCC1 [Compound A12, 5-[5-(1-piperidin-4-yl-1H-pyrazol-4-yl)-1H-pyrrolo[2,3-b]pyridin-3-yl]-2-(tetrahydropyran-4-yloxy)benzonitrile] | 300 to 3000 nM |
| CN1CCC(Oc2ccc(-c3c[nH]c4ncc(-c5cnn(C)c5)cc34)cc2C#N)CC1 [Compound A13, 2-(1-methylpiperidin-4-yloxy)-5-[5-(1-methyl-1H-pyrazol-4-yl)-1H-pyrrolo[2,3-b]pyridin-3-yl]benzonitrile] | 3000 to 50000 nM |
| N#Cc1cc(-c2c[nH]c3ncc(-c4cnn(CCO)c4)cc23)ccc1OC1CCOCC1 [Compound A15, 5-[5-[1-(2-hydroxyethyl)pyrazol-4-yl]-1H-pyrrolo[2,3-b]pyridin-3-yl]-2-tetrahydropyran-4-yloxybenzonitrile] | < 300 nM |
| CN1CCC(n2cc(-c3cnc4[nH]cc(-c5ccc(OC6CCOCC6)c(C#N)c5)c4c3)cn2)CC1 [Compound A16, 5-[5-[1-(1-methyl-4-piperidyl)pyrazol-4-yl]-1H-pyrrolo[2,3-b]pyridin-3-yl]-2-tetrahydropyran-4-yloxybenzonitrile] | < 300 nM |
| CN1CCN(c2cnc3[nH]cc(-c4ccc(OC5CCOCC5)c(C#N)c4)c3c2)CC1 [Compound A17, 5-[5-(4-methylpiperazin-1-yl)-1H-pyrrolo[2,3-b]pyridin-3-yl]-2-tetrahydropyran-4-yloxybenzonitrile] | 3000 to 50000 nM |
| N#Cc1cc(-c2c[nH]c3ncc(-c4cnn(C5CCNCC5)c4)cc23)cnc1OC1CCOCC1 [Compound A18, 5-[5-[1-(4-piperidyl)pyrazol-4-yl]-1H-pyrrolo[2,3-b]pyridin-3-yl]-2-tetrahydropyran-4-yloxypyridine-3-carbonitrile] | 300 to 3000 nM |
| N#Cc1cc(-c2c[nH]c3ncc(OCCN4CCOCC4)cc23)ccc1OC1CCOCC1 [Compound A21, 5-[5-(2-morpholinoethoxy)-1H-pyrrolo[2,3-b]pyridin-3-yl]-2-tetrahydropyran-4-yloxybenzonitrile] | 300 to 3000 nM |
| CC1(COc2ccc(-c3c[nH]c4ncc(-c5cnn(C6CCNCC6)c5)cc34)cc2C#N)COC1 [Compound A24, 2-[(3-Methyloxetan-3-yl)methoxy]-5-[5-[1-(4-piperidyl)pyrazol-4-yl]-1H-pyrrolo[2,3-b]pyridin-3-yl]-benzonitrile] | 300 to 3000 nM |
| N#Cc1cc(-c2c[nH]c3ncc(-c4cnn(C5COC5)c4)cc23)ccc1OC1CCOCC1 [Compound A26, 5-[5-[1-(Oxetan-3-yl)pyrazol-4-yl]-1H-pyrrolo[2,3-b]-pyridin-3-yl]-2-tetrahydropyran-4-yloxybenzonitrile] | < 300 nM |
| N#Cc1cc(-c2c[nH]c3ncc(-c4cn(CCN5CCCC5)nn4)cc23)ccc1OC1CCOCC1 [Compound A27, 5-[5-[1-(2-Pyrrolidin-1-ylethyl)triazol-4-yl]-1H-pyrrolo-[2,3-b]pyridin-3-yl]-2-tetrahydropyran-4-yloxybenzo-nitrile] | 300 to 3000 nM |
| Cn1cc(-c2cnc3[nH]cc(-c4cnc(OC5CCOCC5)c(C#N)c4)c3c2)cn1 [Compound A30, 5-[5-(1-Methylpyrazol-4-yl)-1H-pyrrolo[2,3-b]pyridin-3-yl]-2-tetrahydropyran-4-yloxypyridine-3-carbonitrile] | 300 to 3000 nM |
| Cn1cc(-c2cnc3[nH]cc(-c4ccc(OC5COC5)c(C#N)c4)c3c2)cn1 [Compound A31, 5-[5-(1-methyl-1H-pyrazol-4-yl)-1H-pyrrolo[2,3-b]pyridin-3-yl]-2-(oxetan-3-yloxy)benzonitrile] | 3000 to 50000 nM |
| Cn1cc(-c2cnc3[nH]cc(-c4ccc(OCC5(C)COC5)c(C#N)c4)c3c2)cn1 [Compound A32, 2-(3-methyloxetan-3-ylmethoxy)-5-[5-(1-methyl-1H-pyrazol-4-yl)-1H-pyrrolo[2,3-b]pyridin-3-yl]benzonitrile] | 300 to 3000 nM |
| N#Cc1cc(-c2c[nH]c3ncc(-c4cnn(CCN5CCCC5)c4)cc23)cnc1OC1CCOCC1 [Compound A33, 5-{5-[1-(2-Pyrrolidin-1-ylethyl)-1H-pyrazol-4-yl]-1H-pyrrolo[2,3-b]pyridin-3-yl}-2-(tetrahydropyran-4-yl-oxy)nicotinonitrile] | 300 to 3000 nM |
| N#Cc1cc(-c2c[nH]c3ncc(-c4cnn(C5COC5)c4)cc23)ccc1OC1COC1 [Compound A34, 2-(oxetan-3-yloxy)-5-[5-(1-oxetan-3-yl-1H-pyrazol-4-yl)-1H-pyrrolo-[2,3-b]pyridin-3-yl]benzonitrile] | 3000 to 50000 nM |
| CC1(COc2ccc(-c3c[nH]c4ncc(-c5cnn(C6COC6)c5)cc34)cc2C#N)COC1 [Compound A35, 2-(3-methyloxetan-3-ylmethoxy)-5-[5-(1-oxetan-3-yl-1H-pyrazol-4-yl)-1H-pyrrolo[2,3-b]-pyridin-3-yl]benzonitrile] | 300 to 3000 nM |

same assay, conditions: MDA-MB-468 cells, nuclear phospho-IRF3 Ser386, read-out: TBK1 + IKKε cell assay IC50

| SMILES | IC50 |
| --- | --- |
| CN1CCC(n2cc(-c3cnc4[nH]cc(-c5ccc(OC6CCOCC6)c(C#N)c5)c4c3)cn2)CC1 [Compound A20, 5-[5-[1-(1-methyl-4-piperidyl)pyrazol-4-yl]-1H-pyrrolo[2,3-b]pyridin-3-yl]-2-tetrahydropyran-4-yloxybenzonitrile] | 300 to 3000 nM |
| N#Cc1cc(-c2c[nH]c3ncc(-c4cn(C5CCNCC5)nn4)cc23)ccc1OC1CCOCC1 [Compound A22, 5-[5-[1-(4-piperidyl)triazol-4-yl]-1H-pyrrolo[2,3-b]pyridin-3-yl]-2-tetrahydropyran-4-yloxybenzonitrile] | 300 to 3000 nM |
| CN1CCC(n2cc(-c3cnc4[nH]cc(-c5ccc(OC6CCOCC6)c(C#N)c5)c4c3)nn2)CC1 [Compound A23, 5-[5-[1-(1-methyl-4-piperidyl)triazol-4-yl]-1H-pyrrolo[2,3-b]pyridin-3-yl]-2-tetrahydropyran-4-yloxybenzonitrile] | 300 to 3000 nM |
